Assay [1] concerns U373 cells. As to the kind of experiment: MTT cell viability assay, U373 cells. It counts as cell-based, human. The settings on record: for IC50: Homo sapiens, U373 MG, MTT, 24 h, read-out: IC50 (μg/mL) U373 Cells. How it is done:
(§1) Human U373 glioma, MCF7 breast cancer, A549 lung cancer and PC-3 prostate cancer cells were grown in Dulbecco’s Modified Eagle Medium (DMEM), supplemented with 10% foetal bovine serum, 2 mM glutamine, 100 U/mL penicillin/streptomycin, at 37 °C in a humidified atmosphere containing 5% CO2 (logarithmic growth phase, routine passages every 3 days). The human breast epithelial cell line MCF10 was cultured in DMEM/F12 Ham’s Mixture supplemented with 5% horse serum, epithelial growth factor 20 ng/mL, insulin 10 μg/mL, hydrocortisone 0.5 mg/mL, cholera toxin 100 ng/mL, and 100 U/mL penicillin/streptomycin. HUVEC were grown in EGM-2 Endothelial Cell Growth Medium-2 BulletKit (Lonza, Basel, Switzerland), according to the manufacturer’s protocol.
(§2) U373, MCF7, A549, PC-3, HUVEC, and MCF10 cell viability was determined by MTT assay using published protocols. MTT absorbance was quantified spectrophotometrically using a Glomax Multi Detection System microplate reader (Promega, Milano, Italy).
Statistical significance of raw data between the groups in each experiment was evaluated using unpaired Student’s t-test (single comparisons) or one-way ANOVA followed by the Newman-Keuls post-test (multiple comparisons). The IC50 and Emax concentration were determined by non-linear regression curve analysis of the concentration-effect responses. Potency values among concentration-response curves were compared with the F-test. Data belonging from different experiments were represented and averaged in the same graph. The GraphPad Prism software package (GraphPad Software, San Diego, CA, USA) was used. The results were expressed as means ± standard error of mean (SEM) of the indicated n values.

Assay [2] deals with XIAP. As to the kind of experiment: XIAP expression by real-time PCR and western blot in MCF7 cells. The settings on record: MCF7, increasing times, gibbilimbol B/eriopodol A 30 μg/mL, erioquinol 10 µg/mL; for XIAP mRNA levels: real-time PCR; for XIAP protein levels: western blot. It counts as cell-based, human. The text has this: (§3) Using published protocols, MCF7 and MCF10 cells were homogenised in RIPA lysis buffer, supplemented with a cocktail of protease inhibitors (cOmplete; Roche Diagnostics, Milano, Italy). Equal amounts of proteins were separated by 4–20% SDS-polyacrylamide gel electrophoresis (Criterion TGX Stain-free precast gels and Criterion Cell system; Bio-Rad, Hercules, CA, USA) and transferred onto nitrocellulose membrane using a Bio-Rad Trans-Blot Turbo System. When indicated, the membranes were probed using the rabbit monoclonal anti-cleaved caspase 7 and anti-XIAP (Cell Signaling Technology) primary antibodies. After the incubation with the appropriate horseradish-peroxidase-conjugated secondary antibody (Cell Signaling Technology), bands were visualised using the Clarity Western ECL substrate with a ChemiDoc MP imaging system (Bio-Rad). To monitor for potential artefacts in loading and transfer among samples in different lanes, the blots were routinely treated with the Restore Western Blot Stripping Buffer (ThermoFisher Scientific) and re-probed with the goat anti-Lactate dehydrogenase (LDH)-A (Santa Cruz Biotechnology) and the mouse anti-vinculin primary antibodies. The stain-free gel was used as loading control as well. When appropriated, bands were quantified for densitometry using the Bio-Rad Image Lab software.
The analysis of mRNA expression was performed as previously described. Briefly, total RNA from MCF7 cells was extracted with the High Pure RNA Isolation Kit (Roche Applied Science, Mannheim, Germany), according to the manufacturer’s protocol. First-strand cDNA was generated from 1 μg of total RNA using iScript Reverse Transcription Supermix (Bio-Rad). Primer pairs (Eurofins Genomics, Milano, Italy) for XIAP (NM_001167; forward ACCGTGCGGTGCTTTAGTT, reverse […]) and β-actin (NM_001101; forward […], reverse CACCTTCTACAAT GAGCTGCGTGTG) were designed to hybridise to unique regions of the appropriate gene sequence. PCR was performed using SsoAdvanced Universal SYBR Green Supermix and the CFX96 Touch Real-Time PCR Detection System (Bio-Rad). The fold change was determined relative to the selected control sample after normalising to β-actin (internal standard) by the formula 2^−ΔΔCT.

The test system of assay [3] is MCF7 cells. As to the kind of experiment: MTT assay and cleaved-caspase 7 western blot in XIAP siRNA-transfected MCF7 cells treated with compounds. The settings on record: MCF7, XIAP siRNA 50 nM 24 h; for toxicity (MTT absorbance) after XIAP downregulation: then 6 h, gibbilimbol B/eriopodol A 30 μg/mL, erioquinol 10 μg/mL. The format is cell-based, human. Here is the method:
as §2, §3
Gene silencing of XIAP in MCF7 cells was performed as previously published. Briefly, according to the manufacturer’s protocol, iBONI siRNA Pool (Riboxx, Radebeul, Germany) targeting human XIAP were mixed to Lipofectamine RNAiMax transfection reagent (Life Technologies). iBONI siRNA Pool negative control (Riboxx) (scrambled targeting siRNAs) was also used. The mix was added to cultured MCF7 cells at a siRNA concentration of 50 nM for 24 h.

Assay [4] concerns MCF7 cells. As to the kind of experiment: TMRM mitochondrial membrane potential analysis, MCF7 cells. The note with it: gibbilimbol B/eriopodol A 30 µg/mL, erioquinol 10 µg/mL; for TMRM fluorescence (mitochondria membrane potential): MCF7, increasing time; for time to full response of TMRM fluorescence decrease: MCF7. The format is cell-based, human. How it is done:
Using published protocols, mitochondria of MCF7 and U373 cells were labeled using TMRM, a voltage-sensitive cationic lipophilic dye, partitioning and accumulating in the mitochondrial matrix based upon the Nernst equation. After treatments, cells were trypsinised, counted and incubated with 100 nM TMRM for 30 min at 37 °C. Fluorescence was measured by using a Glomax Multi Detection System microplate reader (Promega), excitation wavelength: 525 nm; emission wavelength: 580–640 nm). After background subtraction, the data were normalised on cell number.

For assay [5], the system named is U373 cells. As to the kind of experiment: Confocal co-localisation of cytochrome c with COX IV, U373 cells. The format is cell-based, human. The settings on record: U373, 3 h; gibbilimbol B/eriopodol A 30 µg/mL, erioquinol 10 µg/mL. How it is done: (§4) Using published protocols, MCF7 or U373 cells cultured in 120-mm coverslips were fixed in 4% paraformaldehyde in 0.1 M PB, pH 7.4, for 10 min. Cells were pre-incubated for 1 h min with 5% of normal goat serum (Life Technologies, Monza, Italy) in 0.1 M PB (pH 7.4) containing 0.1% Triton X-100, before overnight incubation with the rabbit monoclonal anti-cleaved caspase 7 (Cell Signaling Technology, Danvers, MA, USA). In double-label immunofluorescence experiments, the mouse monoclonal anti-cytochrome c primary antibody (Cell Signaling Technology) was used in conjunction with the rabbit monoclonal primary antibody directed to COX IV (Cell Signaling Technology). For fluorescence detection, coverslips were stained with the appropriate Alexa Fluor secondary antibodies (Life Technologies) and mounted on glass slides in a ProLong Gold Antifade Mountant (Life Technologies). DAPI and/or fluorescein phalloidin (cytoskeleton detection) staining was also used. Cells were analysed with a DMI4000 B automated inverted microscope equipped with a DCF310 digital camera (Leica Microsystems, Wetzlar, Germany). When indicated, confocal imaging was performed with a TCS SP8 System (Leica Microsystems). Image acquisitions were controlled by the Leica Application Suite X.

In assay [6] the test system is caspase 9 and 7. As to the kind of experiment: Cleaved-caspase 9 and 7 western blot / immunofluorescence in MCF7 cells. It counts as cell-based, human. The note with it: gibbilimbol B/eriopodol A 30 µg/mL, erioquinol 10 µg/mL; for cleaved-caspase 7 staining, immunofluorescence: MCF7, 3 and 6 h; for caspase activation, western blot: MCF7, 3 h and 6 h. Here is the method:
as §4, §3

The test system of assay [7] is MCF10 cells. As to the kind of experiment: MTT cell viability assay, MCF10 cells. The settings on record: Homo sapiens, 24 h, non-tumourigenic breast MCF10 cells. It counts as cell-based. How it is done:
as §1, with “HUVEC were grown in EGM-2 Endothelial Cell Growth Medium-2 BulletKit (Lonza, Basel, Switzerland), according to the manufacturer’s protocol.” left out
as §2
Statistical significance of raw data between the groups in each experiment was evaluated using unpaired Student’s t-test (single comparisons) or one-way ANOVA followed by the Newman-Keuls post-test (multiple comparisons). The IC50 and Emax concentration were determined by non-linear regression curve analysis of the concentration-effect responses. […] The results were expressed as means ± standard error of mean (SEM) of the indicated n values.

Molecules are shown by their SMILES. Converted amounts (≈) assume the structure as drawn.

With `CCCCCC/C=C\CCC1(O)C=CC(=O)C=C1` [Erioquinol, (Z)-4-(dec-3′-enyl)-4-hydroxycyclohexa-2,5-dien-1-one], the IC50 in assay [1] came out at 1.78 µg/mL (≈ 7.17 µM). In addition, the “concentration-dependent inhibition of MTT absorbance with 50 µM necrostatin-1 and 10 µM ferrostatin-1” value in assay [1] (U373, 24 h, 2 h pre-treatment with inhibitors) was “did not change”. For the same molecule, in assay [2], the “XIAP mRNA levels” value is “did not significantly modify” and the XIAP protein levels result is “did not significantly modify”. In assay [3], the “toxicity (MTT absorbance) after XIAP downregulation” value is reported as “significantly enhanced the toxicity”. Further, in assay [4], the “TMRM fluorescence (mitochondria membrane potential)” value is “comparable decrease in TMRM fluorescence vs. control” and the “time to full response of TMRM fluorescence decrease” value was no more than 1 h. Besides, in assay [5], the “subcellular location of cytochrome c” value was “release of cytochrome c”. Moreover, in assay [6], the “cleaved-caspase 7 staining, immunofluorescence” value is given as “positive cells were absent” and the “caspase activation, western blot” value is given as “did not display any sign of caspase 7 activity”. Also, in assay [7], the IC50 is 1.7 µg/mL (≈ 6.84 µM).

On to `CCCCCC/C=C/CCc1ccc(O)cc1` [Gibbilimbol B, (E)-4-(dec-3′-enyl)phenol], for which, in assay [1], the IC50 is 16.8 µg/mL (≈ 72.3 µM). In assay [2], the “XIAP mRNA levels” value is “did not significantly modify” and the XIAP protein levels entry was “did not significantly modify”. In addition, the “caspase 7 activity after XIAP silencing” value in assay [3] (then 30 μg/mL for 6 h) is on record as “robustly increased”. In addition, the “toxicity (MTT absorbance) after XIAP downregulation” value in assay [3] was “significantly enhanced the toxicity”. In assay [4], the “TMRM fluorescence (mitochondria membrane potential)” value is “comparable decrease in TMRM fluorescence vs. control” and the “time to full response of TMRM fluorescence decrease” value was no more than 1 h. Moreover, the “subcellular location of cytochrome c” value in assay [5] was “release of cytochrome c”. For the same molecule, in assay [6], the “cleaved-caspase 7 staining, immunofluorescence” value was “intensive cleaved-caspase 7 staining”; the “caspase activation, western blot” value is “activation of caspase 9 and 7”. This molecule also came in with an IC50 in assay [7] of 17.1 µg/mL (≈ 73.6 µM).

These data come from PMC6770071, “XIAP as a Target of New Small Organic Natural Molecules Inducing Human Cancer Cell Death” (Cancers, 2019).
